Structures can show the parent of a compound that is named as a salt.
The compounds below were run against T1, Lot6p (Saccharomyces cerevisiae, UniProt Q07923) (assay: stopped-flow oxidation of reduced enzyme at […] nm).
T1 sequence (Q07923 1-191): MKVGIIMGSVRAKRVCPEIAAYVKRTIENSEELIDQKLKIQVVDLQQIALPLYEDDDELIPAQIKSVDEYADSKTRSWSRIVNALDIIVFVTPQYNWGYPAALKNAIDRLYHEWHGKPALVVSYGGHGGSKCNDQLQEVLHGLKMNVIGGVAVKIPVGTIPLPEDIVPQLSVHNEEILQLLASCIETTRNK
Assay type: biochemical

Compound	k2 [M⁻¹ s⁻¹]
COC1=C(OC)C(=O)C(C)=CC1=O [Coenzyme Q0]	6.45e+06
O=C1C=C(S(=O)(=O)O)c2ccccc2C1=O [1,2-Napthoquinone-4-sulfonic acid, Na salt]	142000
O=C1c2ccccc2C(=O)c2c1cccc2S(=O)(=O)O [Na-anthraquinone, α-sulfonate]	1810
O=C1C=CC(=O)C=C1 [1,4-Benzoquinone]	1.03e+07
O=C1C=C(O)C(=O)c2ccccc21 [2-Hydroxy-1,4-naphthoquinone]	7580
CC1=CC(=O)c2ccccc2C1=O [Menadione]	677000

These compounds were tested against T1, Lot6p (assay: not given).
Assay type: biochemical

Compound	Kd [mM]
NC(=O)C1=CN([C@@H]2O[C@H](COP(=O)(O)OP(=O)(O)OC[C@H]3O[C@@H](n4cnc5c(N)ncnc54)[C@H](O)[C@@H]3O)[C@@H](O)[C@H]2O)C=CC1 [NADH]	9.6 ± 2.4
NC(=O)C1=CN([C@@H]2O[C@H](COP(=O)(O)OP(=O)(O)OC[C@H]3O[C@@H](n4cnc5c(N)ncnc54)[C@H](OP(=O)(O)O)[C@@H]3O)[C@@H](O)[C@H]2O)C=CC1 [NADPH]	12.5 ± 1.1
